Data: patent US10189795B2, “Aryl amine substituted quinoxaline used as anticancer drugs” (priority 2014, dated 2019)
Values belong to the compound of their own block, whether it stands above or below them.

Experiments:
PLC5 xenograft tumor = PLC5 xenograft tumor growth in nude mice; assay type: in vivo; settings: 10 mg/kg, oral gavage daily, 4 weeks, vs control arm
Procedure: Male NCr athymic nude mice (5-7 weeks of age) were obtained from the National Laboratory Animal Center (Taipei, Taiwan). All experimental procedures using these mice were performed in accordance with protocols approved by the Institutional Laboratory Animal Care and Use Committee of National Taiwan University. Each mouse was inoculated subcutaneously in the dorsal flank with 1×10^6 PLC5 or A549 cells suspended in serum-free medium containing 50% Matrigel (BD Biosciences, Bedford, Mass., USA). When tumors reached 100-150 mm^3, mice were treated with sorafenib, the erlotinib derivatives of the present invention, or vehicle (control) at 10 mg/kg/day daily by oral gavage for 4 weeks.
The present invention used a PLC5 xenograft mouse model to assess the effects of TD-52 in vivo. The present choose sorafenib as one of the comparative treatment arms. Tumor-bearing mice were administered sorafenib (10 mg/kg), TD-52 (10 mg/kg) or DMSO (vehicle, as control). […] The present invention further examined the xenografted tumors taken from mice receiving TD-52 and vehicle to confirm the molecular events in the tumor tissue. […] When PP2A activity was enhanced by TD-52, Akt was dephosphorylated, promoting HCC cell apoptosis.

NCI-1703 = assay: cell viability of NCI-1703 cells, 1 and 10 uM of each erlotinib derivative, and IC50; assay type: cell-based; settings: Homo sapiens
Procedure: [Worded in the source for another cell line; this cell line is reported under the same test.] (§1) Sorafenib (Nexavar), erlotinib (Tarceva) and Paclitaxel were kindly provided by Bayer Pharmaceuticals (Pittsburgh, Pa., USA) and Roche Pharmaceuticals (Basel, Switzerland) respectively. Okadaic acid (OA) was purchased from Cayman Chemical (Ann Arbor, Mich., USA) and z-VAD-fmk was obtained from Sigma (St. Louis, Mo., USA). For in vitro studies, drugs at various concentrations were dissolved in dimethyl sulfoxide (DMSO), and added to cells in Dulbecco's modified Eagle's medium (DMEM) or Roswell Park Memorial Institute (RPMI) containing 5% fetal bovine serum (FBS).
(§2) The Sk-Hep1, PLC/PRF/5 (PLC) and Hep3B cell lines were obtained from American Type Culture Collection (ATCC; Manassas, Va., USA). The Huh-7 HCC cell line was obtained from the Health Science Research Resources Bank (HSRRB; Osaka, Japan; JCRB0403). Cells were maintained in DMEM supplemented with 10% FBS in a 37° C. humidified incubator in an atmosphere of 5% CO^2 in air.

NCI-H226 = assay: cell viability of NCI-H226 cells, 1 and 10 uM; assay type: cell-based; settings: Homo sapiens
Procedure: [Worded in the source for another cell line; this cell line is reported under the same test.] as §1, §2

A549 = assay: cell viability of A549 cells, 1 and 10 uM; assay type: cell-based; settings: Homo sapiens
Procedure: [Worded in the source for another cell line; this cell line is reported under the same test.] as §1, §2

H358 = assay: cell viability of H358 cells, 1 and 10 uM; assay type: cell-based; settings: Homo sapiens, NCI-H358
Procedure: [Worded in the source for another cell line; this cell line is reported under the same test.] as §1, §2

BA (%), Table 5 = settings: in vivo
H2170 = assay: cell viability of H2170 cells, 1 and 10 uM; assay type: cell-based; settings: Homo sapiens, NCI-H2170
Procedure: [Worded in the source for another cell line; this cell line is reported under the same test.] as §1, §2

H520 = assay: cell viability of H520 cells, 1 and 10 uM; assay type: cell-based; settings: Homo sapiens, NCI-H520
Procedure: [Worded in the source for another cell line; this cell line is reported under the same test.] as §1, §2

SW900 = assay: cell viability of SW900 cells, 1 and 10 uM; assay type: cell-based; settings: Homo sapiens
Procedure: [Worded in the source for another cell line; this cell line is reported under the same test.] as §1, §2

SET-PP2Ac binding = target: T1, SET-PP2Ac binding (Homo sapiens, UniProt Q01105); assay: disruption of SET-PP2Ac binding (surface plasmon resonance, co-IP)
T1 construct: His; purchased Genway (SET-His); Abnova (PP2Ac-GST) GWB-ATG319; H00005515
T1 sequence (Q01105 1-277 isoform Q01105-2): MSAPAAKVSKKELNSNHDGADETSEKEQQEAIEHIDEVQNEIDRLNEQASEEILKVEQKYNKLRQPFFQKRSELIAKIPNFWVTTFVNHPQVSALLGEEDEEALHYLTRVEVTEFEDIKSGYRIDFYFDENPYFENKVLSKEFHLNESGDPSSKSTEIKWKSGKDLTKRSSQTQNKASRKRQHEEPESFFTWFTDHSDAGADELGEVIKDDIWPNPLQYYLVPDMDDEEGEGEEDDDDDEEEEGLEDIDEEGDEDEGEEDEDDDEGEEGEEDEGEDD
Procedure: Binding affinities of full-length SET and truncated SET to PP2Ac and the effect of the erlotinib derivatives of the present invention on disrupting SET and PP2Ac were analyzed. PP2Ac-GST recombinant protein was bound in the CMS chip pre-coated with GST-capture antibodies. Sensorgrams were generated by injecting several concentrations of the erlotinib derivatives of the present invention mixed with fixed-concentration of SET recombinant protein, or the mixture of different concentration of truncated SET proteins in a fixed-dose EMQA. PP2Ac-GST recombinant protein used for this experiment was purchased from Abnova (H00005515) and SET-His recombinant protein was obtained from Genway (GWB-ATG319).
EMQA reactivates PP2A by disrupting the binding of SET-PP2Ac. To validate the role of SET, the present invention generated Hep3B cells with ectopic expression of myc-tagged SET by transient transfection. […] With a fixed amount of PP2Ac coated on the CM chip, the present invention tested the effects of a fixed-dose of EMQA on interfering different proportions of full-length and truncated forms of SET proteins in SPR system. […] To validate the findings of this ex vivo system, the present invention generated cells with ectopic overexpression of these two truncated forms of Flag-tagged SET proteins by transient transfections.

PP2A = PP2A phosphatase activity (malachite green-phosphate assay in cell lysate); assay type: cell-based
Procedure: The protein phosphatase activity in each cell lysate was determined by measuring the generation of free phosphate from threonine phosphopeptide using the malachite green-phosphate complex assay as described by the manufacturer (Upstate Biotechnology, Lake Placid, N.Y., USA). In brief, HCC cell lysates were first prepared in a low-detergent lysis buffer. […] After incubation for 10 min at 30° C., the malachite dye was added and free phosphate was measured by optical density at 650 nm. In order to avoid variation resulting from differences in the amount of immunoprecipitation protein between samples, the phosphatase activities were normalized to the amounts of PP2A immunoprecipitated, which were detected and quantified by immunoblot analysis for each treatment group.

Structure (SMILES): CNC(=O)c1cc(Oc2ccc(NC(=O)Nc3ccc(Cl)c(C(F)(F)F)c3)cc2)ccn1 [sorafenib, reference compound]
- tumor size (PLC5 xenograft tumor): smaller than those of the control arm

- BA (%) (BA (%), Table 5): 62%
Structure (SMILES): C#Cc1cccc(Nc2nc3cc([N+](=O)[O-])ccc3nc2Nc2ccc(O)cc2)c1 [TD619, 4-(2-(3-ethynylphenylamino)-7-nitroquinoxalin-3-ylamino)phenol]
- viability at 1 µM (NCI-1703): 119 ± 11.2%
- viability at 10 µM (NCI-1703): 33.6 ± 5.4%
- viability at 1 µM (NCI-H226): 110 ± 18.2%
- viability at 10 µM (NCI-H226): 19.5 ± 0.7%
- viability at 1 µM (A549): 105 ± 19.5%
- viability at 10 µM (A549): 20.9 ± 1.7%
- viability at 1 µM (H358): 87.5 ± 3.6%
- viability at 10 µM (H358): 22.1 ± 0.6%

Structure (SMILES): Cc1ccc(Nc2nc3ccccc3nc2Nc2ccc(C)c(O)c2)cc1O [TD66, 5,5′-(quinoxaline-2,3-diylbis(azanediyl))bis(2-methylphenol)]
- viability at 1 µM (NCI-1703): 84.5 ± 2.3%
- viability at 10 µM (NCI-1703): 10.1 ± 0.2%
- viability at 1 µM (NCI-H226): 71.2 ± 1.2%
- viability at 10 µM (NCI-H226): 4.7 ± 0.1%
- viability at 1 µM (A549): 55.5 ± 5.1%
- viability at 10 µM (A549): 11.1 ± 0.6%
- viability at 1 µM (H358): 96.6 ± 0.9%
- viability at 10 µM (H358): 14.9 ± 3%
- viability at 1 µM (H2170): 101.5 ± 0.48%
- viability at 10 µM (H2170): 3.7 ± 1.37%
- viability at 1 µM (H520): 104 ± 8.53%
- viability at 10 µM (H520): 51.7 ± 20.5%
- viability at 1 µM (SW900): 113 ± 4.64%
- viability at 10 µM (SW900): 77.4 ± 20.5%
- BA (%) (BA (%), Table 5): 22%

- BA (%) (BA (%), Table 5): 57%
- minimal concentration to disrupt SET-PP2Ac binding (SET-PP2Ac binding): 50 to 100 nM
Structure (SMILES): C#Cc1cccc(Nc2nc3ccc([N+](=O)[O-])cc3nc2Nc2cccc(C#C)c2)c1 [TD604, N^2,N^3-bis(3-ethynylphenyl)-6-nitroquinoxaline-2,3-diamine]
- viability at 1 µM (NCI-1703): 15.2 ± 0.5%
- viability at 10 µM (NCI-1703): 12.5 ± 0.3%
- IC50 (NCI-1703; cell viability): 0.6 µM
- viability at 1 µM (NCI-H226): 40.3 ± 1.7%
- viability at 10 µM (NCI-H226): 5.3 ± 0.3%
- viability at 1 µM (A549): 117 ± 7.2%
- viability at 10 µM (A549): 132 ± 5.1%
- viability at 1 µM (H358): 115 ± 9%
- viability at 10 µM (H358): 116 ± 8.5%
- viability at 1 µM (H2170): 74.7 ± 6.38%
- viability at 10 µM (H2170): 2.06 ± 0.66%
- viability at 1 µM (H520): 30.5 ± 13.9%
- viability at 10 µM (H520): 0.99 ± 0.02%
- viability at 1 µM (SW900): 86.1 ± 22.8%
- viability at 10 µM (SW900): 0%
- minimal concentration for PP2A activation (PP2A): <50 nM

Structure (SMILES): FC(F)(F)c1cc(Nc2nc3ccccc3nc2Nc2ccc(Cl)c(C(F)(F)F)c2)ccc1Cl [TD63, N^2,N^3-bis(4-chloro-3-(trifluoromethyl)phenyl)quinoxaline-2,3-diamine]
- viability at 1 µM (NCI-1703): 54.5 ± 5.5%
- viability at 10 µM (NCI-1703): 28.8 ± 7.9%
- viability at 1 µM (NCI-H226): 99.9 ± 4.3%
- viability at 10 µM (NCI-H226): 19.6 ± 0.4%
- viability at 1 µM (A549): 79.2 ± 7.8%
- viability at 10 µM (A549): 21.9 ± 2.2%
- viability at 1 µM (H358): 66.8 ± 8.5%
- viability at 10 µM (H358): 16.2 ± 1.3%
- viability at 1 µM (H2170): 78.5 ± 1.28%
- viability at 10 µM (H2170): 9.13 ± 0.63%
- viability at 1 µM (H520): 28.5 ± 0.58%
- viability at 10 µM (H520): 0.45 ± 0.14%
- viability at 1 µM (SW900): 54.8 ± 3.35%
- viability at 10 µM (SW900): 3.28 ± 4.63%
- minimal concentration to disrupt SET-PP2Ac binding (SET-PP2Ac binding): <100 nM
- minimal concentration for PP2A activation (PP2A): 100 to 200 nM
